From patent US4035386A, “Propynylamine-substituted dibenzo[b,f]thiepins and dibenz[b,f]oxepins” (Hoffmann-La Roche Inc., priority 1976, dated 1977)

Legend:
[1] = system: homovanillinic acid (HVA); assay: Determination of homovanillinic acid (HVA) in brains of treated rats; dopamine turnover in the basal ganglions; format: in vivo; settings: for Increase of HVA, %: two hours before killing, untreated rats set at 100%; for activity in HVA test compared with chlorpromazine (in words): p.o., in comparison to chlorpromazine
Experimental: I. determination of Homovanillinic Acid
Two hours prior to being killed, rats are injected with the test substance.
Thereafter, the homovanillinic acid is extracted from the supernatent portion of a homogenized mixture of brains of the treated rats into butylacetate and later into an aqueous solution and is oxidized with potassium ferric cyanide to a fluorescent […]. […] The homovanillinic titer in untreated rats is arbitrarily set at 100%.

[2] = in vivo; settings: rats, intraperitoneal; for ED50 at 6 h: rat, in vivo, ip, observed every 30 minutes over a 6-hour period, cataleptic = homolateral extremities crossed at least 10 seconds, read-out: ED50 (dose at which 50% of the animals are cataleptic); for cataleptic effect (in words): in comparison to chlorpromazine
Experimental: The following compounds were tested:
The foregoing compounds were compared to chlorpromazine, a well-known central depressant, especially well-known as a neuroleptic agent. The test animals are considered to be cataleptic when the homolateral extremities remain in the crossed position for at least 10 seconds. The number of cataleptic animals is recorded every 30 minutes over a 6-hour period.

Structure (SMILES)	Increase of HVA, % ([1]; 20 mg/kg p.o.)	ED50 at 6 h [2]	cataleptic effect (in words) [2]	Increase of HVA, % ([1]; 50 mg/kg p.o.)	activity in HVA test compared with chlorpromazine (in words) [1]	Increase of HVA, % ([1]; 30 mg/kg p.o.)
CN(C)CCCN1c2ccccc2Sc2ccc(Cl)cc21 [Chlorpromazine, reference compound]	321%	6 mg/kg	does demonstrate cataleptic effects			
CSc1ccc2c(c1)C(C#CCN(C)C)=Cc1ccccc1S2.O=C(O)/C=C\C(=O)O [Product A, N,N-dimethyl-3-[8-(methylthio)-dibenzo[b,f]thiepin-10-yl]-2-propynylamine maleate]		> 100 mg/kg	no or, respectively, very weak cataleptic effect	330%	as strong an activity as chlorpromazine	
CN(C)CC#CC1=Cc2ccccc2Sc2ccc(Cl)cc21.O=C(O)/C=C\C(=O)O [Product B, N,N-dimethyl-3-(8-chloro-dibenzo[b,f]thiepin-10-yl)-2-propynylamine maleate]		100 mg/kg	no or, respectively, very weak cataleptic effect	370%	as strong an activity as chlorpromazine	
COc1ccc2c(c1)Sc1ccc(Cl)cc1C(C#CCN(C)C)=C2.CS(=O)(=O)O [Product C, N,N-dimethyl-3-(8-chloro-3-methoxydibenzo[b,f]thiepin-10-yl)-2-propynylamine methanesulfonate]		> 100 mg/kg	no or, respectively, very weak cataleptic effect		as strong an activity as chlorpromazine	320%
